Results as given in ChEMBL document CHEMBL1201862, “PubChem BioAssay data set” (2004).
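Five concentrations, 48 hours, 96-well plates. GI50 marks 50% less growth.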 The source made the active and inactive calls. Cut-off read from the data, not from the text of the source: active = GI50 up to about 1.1 µM and inactive = higher.

Key:
Assay in all cases: inhibition of tumour cell growth, NCI panel, 48 h
786-0 = system: 786-0
A498 = system: A498
A549 = system: A549
ACHN = system: ACHN
BT-549 = system: BT-549
CAKI-1 = system: CAKI-1
CCRF-CEM = system: CCRF-CEM
COLO 205 = system: COLO 205
DU-145 = system: DU-145
EKVX = system: EKVX
HCC 2998 = system: HCC 2998
HCT-116 = system: HCT-116
HCT-15 = system: HCT-15
HL-60 = system: HL-60
HOP-62 = system: HOP-62
HOP-92 = system: HOP-92
HT-29 = system: HT-29
Hs-578T = system: Hs-578T
IGROV-1 = system: IGROV-1
K562 = system: K562
KM12 = system: KM12
LOX IMVI = system: LOX IMVI
M14 = system: M14
MCF7 = system: MCF7
MDA-MB-231 = system: MDA-MB-231
MDA-MB-435 = system: MDA-MB-435
MDA-N = system: MDA-N
MOLT-4 = system: MOLT-4
Malme-3M = system: Malme-3M
NCI-H226 = system: NCI-H226
NCI-H23 = system: NCI-H23
NCI-H460 = system: NCI-H460
NCI-H522 = system: NCI-H522
NCI/ADR-RES = system: NCI/ADR-RES
OVCAR-3 = system: OVCAR-3
OVCAR-4 = system: OVCAR-4
OVCAR-5 = system: OVCAR-5
OVCAR-8 = system: OVCAR-8
PC-3 = system: PC-3
RPMI-8226 = system: RPMI-8226
RXF 393 = system: RXF 393
SF-268 = system: SF-268
SF-295 = system: SF-295
SF-539 = system: SF-539
SK-MEL-28 = system: SK-MEL-28
SK-MEL-2 = system: SK-MEL-2
SK-MEL-5 = system: SK-MEL-5
SK-OV-3 = system: SK-OV-3
SN12C = system: SN12C
SNB-19 = system: SNB-19
SNB-75 = system: SNB-75
SR = system: SR
SW-620 = system: SW-620
T47D = system: T47D
TK-10 = system: TK-10
U-251 = system: U-251
UACC-257 = system: UACC-257
UACC-62 = system: UACC-62
UO-31 = system: UO-31

Measured: GI50

Cc1ccc(-c2cn3c(nc4ccccc43)c(-c3ccccc3)n2)cc1
inactive: 786-0 15.1 µM | A498 30.9 µM | A549 > 100 µM | ACHN 34 µM | BT-549 32.5 µM | CAKI-1 37.7 µM | CCRF-CEM > 100 µM | COLO 205 > 100 µM | DU-145 > 100 µM | EKVX > 100 µM | HCC 2998 > 100 µM | HCT-116 75 µM | HL-60 > 100 µM | HOP-62 15.6 µM | HOP-92 20.7 µM | HT-29 > 100 µM | Hs-578T 15.3 µM | IGROV-1 37.9 µM | K562 > 100 µM | KM12 > 100 µM | LOX IMVI > 100 µM | M14 > 100 µM | MCF7 27.7 µM | MDA-MB-231 > 100 µM | MDA-MB-435 > 100 µM | MDA-N > 100 µM | MOLT-4 > 100 µM | Malme-3M > 83 µM | NCI-H226 58.3 µM | NCI-H23 24 µM | NCI-H460 > 94.4 µM | NCI-H522 20.5 µM | NCI/ADR-RES 47.9 µM | OVCAR-3 > 100 µM | OVCAR-4 > 80.7 µM | OVCAR-5 > 100 µM | OVCAR-8 27.9 µM | PC-3 > 100 µM | RPMI-8226 > 100 µM | RXF 393 25.1 µM | SF-268 > 45.3 µM | SF-295 19.8 µM | SF-539 58.2 µM | SK-MEL-28 > 100 µM | SK-MEL-2 18 µM | SK-MEL-5 > 100 µM | SK-OV-3 18.3 µM | SN12C > 100 µM | SNB-19 16.7 µM | SNB-75 8.45 µM | SR > 100 µM | SW-620 > 100 µM | T47D 32.1 µM | TK-10 27.5 µM | U-251 18.8 µM | UACC-257 > 100 µM | UACC-62 22.4 µM | UO-31 > 49.1 µM
> 100 µM: HCT-15

CC1=NN(c2ccc(C)cc2)C2(C1)SCC(=O)N2c1nc2ccccc2s1 (centres undefined)
inactive: 786-0 20.1 µM | A498 19.6 µM | A549 31.5 µM | ACHN 15.6 µM | BT-549 24.2 µM | CAKI-1 31 µM | CCRF-CEM 5.22 µM | COLO 205 22.7 µM | DU-145 29.5 µM | EKVX 21.9 µM | HCC 2998 22.9 µM | HCT-116 17.8 µM | HL-60 13.1 µM | HOP-62 16.9 µM | HOP-92 49.3 µM | HT-29 30.5 µM | Hs-578T 32.1 µM | IGROV-1 12.9 µM | K562 24.2 µM | KM12 27 µM | LOX IMVI 19.6 µM | M14 22.7 µM | MCF7 4.7 µM | MDA-MB-231 15.5 µM | MDA-MB-435 16.4 µM | MDA-N 20.7 µM | MOLT-4 9.66 µM | Malme-3M 23.5 µM | NCI-H226 11.3 µM | NCI-H23 24 µM | NCI-H460 13.4 µM | NCI-H522 16.7 µM | NCI/ADR-RES 16.2 µM | OVCAR-3 12.2 µM | OVCAR-4 20.2 µM | OVCAR-5 37.2 µM | OVCAR-8 31.6 µM | PC-3 20.5 µM | RPMI-8226 17.7 µM | RXF 393 13.3 µM | SF-268 20.2 µM | SF-295 13 µM | SF-539 19 µM | SK-MEL-28 24.2 µM | SK-MEL-2 21.6 µM | SK-MEL-5 11.4 µM | SK-OV-3 22.1 µM | SN12C 11.2 µM | SNB-19 33.1 µM | SNB-75 16.1 µM | SR 7.11 µM | SW-620 24.3 µM | T47D 11.8 µM | TK-10 28 µM | U-251 16.6 µM | UACC-257 19.5 µM | UACC-62 14.3 µM | UO-31 22.9 µM
20.5 µM: HCT-15

COc1cccc(N2C(=O)C3c4[nH]c5ccccc5c4C4CCCC4C3C2=O)c1 (centres undefined)
> 10 µM: HCT-15
inactive: 786-0 2.14 µM | A498 2.17 µM | A549 4.62 µM | ACHN 5.93 µM | BT-549 > 10 µM | CAKI-1 7.16 µM | CCRF-CEM > 10 µM | COLO 205 > 10 µM | DU-145 > 10 µM | EKVX > 10 µM | HCC 2998 > 10 µM | HCT-116 2.87 µM | HL-60 > 10 µM | HOP-62 2.52 µM | HOP-92 3.59 µM | HT-29 5.69 µM | Hs-578T 3.61 µM | IGROV-1 6.71 µM | K562 > 10 µM | KM12 > 10 µM | LOX IMVI 5.38 µM | M14 3.06 µM | MCF7 > 10 µM | MDA-MB-231 2.25 µM | MDA-MB-435 > 10 µM | MDA-N > 10 µM | MOLT-4 > 10 µM | Malme-3M 2.78 µM | NCI-H226 2.57 µM | NCI-H23 > 10 µM | NCI-H460 4.26 µM | NCI-H522 > 10 µM | NCI/ADR-RES 3.8 µM | OVCAR-3 2.36 µM | OVCAR-4 2.26 µM | OVCAR-5 > 10 µM | OVCAR-8 3.74 µM | PC-3 9.4 µM | RPMI-8226 > 10 µM | RXF 393 9.04 µM | SF-268 9.66 µM | SF-295 > 10 µM | SF-539 7 µM | SK-MEL-28 > 10 µM | SK-MEL-2 > 10 µM | SK-MEL-5 > 10 µM | SK-OV-3 6.64 µM | SN12C 3.01 µM | SNB-19 5.81 µM | SNB-75 2.24 µM | SR 1.48 µM | SW-620 7.98 µM | T47D > 10 µM | TK-10 > 10 µM | U-251 4.06 µM | UACC-257 > 10 µM | UACC-62 > 10 µM

N#C[BH2-][n+]1cn(C2CC(OP(=O)(O)OCC3OC(n4cnc5c(=O)[nH]c(N)nc54)CC3O)C(CO)O2)c2nc(N)[nH]c(=O)c21 (centres undefined)
inactive: 786-0 > 100 µM | A498 > 100 µM | A549 > 100 µM | ACHN > 100 µM | BT-549 > 100 µM | CAKI-1 > 100 µM | CCRF-CEM 37.8 µM | COLO 205 > 100 µM | DU-145 > 100 µM | EKVX > 100 µM | HCC 2998 > 100 µM | HCT-116 > 100 µM | HL-60 > 100 µM | HOP-62 > 100 µM | HOP-92 > 100 µM | HT-29 > 100 µM | Hs-578T > 100 µM | IGROV-1 > 100 µM | K562 55.5 µM | KM12 > 100 µM | LOX IMVI 55.5 µM | MCF7 62.8 µM | MDA-MB-231 > 100 µM | MDA-MB-435 > 100 µM | MDA-N > 100 µM | MOLT-4 81.8 µM | Malme-3M 70.5 µM | NCI-H226 > 100 µM | NCI-H23 > 100 µM | NCI-H460 > 100 µM | NCI-H522 > 100 µM | NCI/ADR-RES > 100 µM | OVCAR-3 > 100 µM | OVCAR-4 > 100 µM | OVCAR-5 > 100 µM | OVCAR-8 > 100 µM | PC-3 > 100 µM | RPMI-8226 > 100 µM | RXF 393 > 100 µM | SF-268 44.4 µM | SF-295 74.3 µM | SF-539 > 100 µM | SK-MEL-28 > 100 µM | SK-MEL-2 > 100 µM | SK-MEL-5 > 100 µM | SK-OV-3 > 100 µM | SN12C > 100 µM | SNB-19 > 100 µM | SNB-75 > 100 µM | SR > 100 µM | SW-620 > 100 µM | T47D > 100 µM | TK-10 > 100 µM | U-251 > 100 µM | UACC-257 > 100 µM | UACC-62 > 100 µM | UO-31 > 100 µM
> 100 µM: HCT-15
